The values that follow come from patent publication US8507411B2, “Neoglycorandomization and digitoxin analogs” (priority 2004, dated 2013).

Assay [1] relates to Du145. As to the kind of experiment: High-throughput calcein AM cytotoxicity assay, Du145. The assay is classed as cell-based, human. Conditions: Du145 cells. From the text: (§1) Standard errors are depicted with error bars.
The test system of assay [2] is MCF7. As to the kind of experiment: High-throughput calcein AM cytotoxicity assay, MCF7. Type of assay: cell-based, human. Particulars: MCF7 cells.
Source text: as §1

Assay [3] concerns HCT-116. Description: High-throughput calcein AM cytotoxicity assay, HCT-116. The assay is classed as cell-based, human. Conditions: HCT-116 cells.
Source text: as §1

Assay [4] relates to Hep3B. Description: High-throughput calcein AM cytotoxicity assay, Hep3B. Conditions: Hep 3B cells. The assay is classed as cell-based, human.
Source text: as §1

The subject of assay [5] is NCI-H460. Description: High-throughput calcein AM cytotoxicity assay, NCI-H460. Type of assay: cell-based, human. Particulars: NCI-H460 cells.
Source text: as §1

Assay [6] concerns A549. As to the kind of experiment: High-throughput calcein AM cytotoxicity assay, A549. Type of assay: cell-based, human. Conditions: A549 cells.
Source text: as §1

Assay [7] relates to NCI/ADR-RES. Description: cells. Conditions: NCI/ADR-RES cells. The assay is classed as cell-based, human. The text has this:
(§2) In the assay, live cells were distinguished by the presence of a ubiquitous intracellular enzymatic activity which converts the non-fluorescent cell-permeable molecule calcein AM to the intensely fluorescent molecule calcein, which is retained within live cells. The IC50 value for each library member represents at least six replicates of dose-response experiments conducted over five concentrations using two-fold dilutions. […] Standard errors are depicted with error bars. Numerical values and corresponding error values can be found in Table 4. Du145: […]; MCF7: human breast carcinoma; HCT-116: human colon carcinoma, Hep3B: human liver carcinoma; SF-268: human CNS glioblastoma; SK-OV-3: human ovary adenocarcinoma; NCI-H460: human lung carcinoma; A549: human lung adenocarcinoma; NCI/ADR-RES: human breast carcinoma; NmuMG: mouse mammary normal epithelial.
(§3) Cell Culture: All cell lines except NmuMG were maintained in RPMI 1640 medium from InVitrogen (Cat No. 11875-085) supplemented with 10% w/v fetal bovine serum (FBS) from ICN (Cat No. 2916154) and penicillin-streptomycin (PS) (100 U/mL and 100 μg/mL) from InVitrogen (Cat No. 15140-122). NmuMG cells were maintained in DMEM medium from InVitrogen (Cat No. 11965-084) supplemented with 10% w/v fetal bovine serum (FBS) from ICN (Cat No. 2916154), 10 μg/ml insulin (InVitrogen Cat No 12585-014), and penicillin-streptomycin (PS) (100 U/mL and 100 μg/mL) from InVitrogen (Cat No. 15140-122). Cells were harvested by trypsinization using 0.25% w/v trypsin and 0.1% w/v EDTA from InVitrogen (Cat No. 15-050-057) and then counted in a hemocytometer in duplicate with better than 10% agreement in field counts. Cells were plated at a cell density of 10,000-15,000 cells/well of each Corning Costar 96-well black tissue culture treated microtiter plate (Fisher Cat No. 07-200-627). Cells were grown for 1 h at 37° C., with 5% CO2 in a humidified incubator to allow cell attachment to occur before compound addition.
(§4) Library Member Handling and Preparation for Cytotoxicity Assays: Library members were stored at −20° C. under dessicating conditions before the assay. Library member stocks (100×) were prepared in Corning Costar polypropylene 96-well V-bottom polypropylene microtiter plates (Fisher Cat No. 07-200-695). Five serial 1:2 dilutions were made with anhydrous DMSO at 100× the final concentration used in the assay.
(§5) Library Member Addition: The library member-containing plates were diluted 1:10 with complete cell culture media. The 10× stocks (10 μL) were added to the attached cells using a Biomek FX liquid handler (Beckman-Coulter). Library member stocks (10 μL) were added to 90 μL of cells in each plate to insure full mixing of stocks with culture media using a Beckman FX liquid handler with 96-well head.
(§6) Determination of Cytotoxicity: Cells were incubated with the library members for 72 h before fluorescence reading. Test plates were removed from the incubator and washed 1× in sterile PBS to remove serum containing calcium esterases. Calcein AM reagent (30 μL, […]) was added and the cells were incubated for 30 min at 37° C. Plates were read for emission using a fluorescein filter (excitation 485 nm, emission 535 nm).
(§7) IC50 Calculation: For each library member, at least six dose response experiments were conducted. […] To calculate IC50, percent inhibitions were plotted as a function of log [concentration] and then fit to a four-parameter logistic model that allowed for a variable Hill slope using XLfit 4.1.
(§8) Cytotoxicity Assays. All cell lines except NmuMG were maintained in RPMI 1640 medium supplemented with 10% w/v fetal bovine serum (FBS) and penicillin-streptomycin (PS) (100 U/mL and 100 μg/mL).

The subject of assay [8] is SF-268. Description: cells. Type of assay: cell-based, human. Conditions: SF-268 cells.
Source text: as §2, §3, §4, §5, §6, §7, §8

Assay [9] has as its system SK-OV-3. Description: cells. Type of assay: cell-based, human. Conditions: SK-OV-3 cells.
Source text: as §2, §3, §4, §5, §6, §7, §8

In assay [10] the test system is NmuMG. Description: cells. The assay is classed as cell-based, mouse.
Source text: as §2, §3, §4, §5, §6, §7, §8

The mark [11] stands for this setting: NmuMG mouse mammary normal epithelial control line, read-out: IC50, NmuMG.
The mark [12] stands for this setting: NmuMG cells (mouse mammary normal epithelial control line), read-out: IC50.

Read-outs that look alike come from different tables or passages of the source.

`CON([C@H]1CC[C@@]2(C)[C@H](CC[C@@H]3[C@@H]2CC[C@]2(C)[C@@H](C4=CC(=O)OC4)CC[C@]32O)C1)[C@@H]1C[C@@](C)(O)[C@@H](O)[C@H](C)O1` [30β, L-mycaroside]: the IC50 was 1.1 µM in assay [1] (read-out: IC50, Du145); 1.8 µM in [2] (read-out: IC50, MCF7); 0.6 µM in assay [3] (read-out: IC50, HCT-116); 0.6 µM in assay [4] (read-out: IC50, Hep 3B); 0.19 µM in [5] (read-out: IC50, NCI-H460); 0.6 µM in assay [6] (read-out: IC50, A549). Further, the IC50 in assay [7] (read-out: IC50, NCI/ADR-RES) is 0.35 µM; in assay [8] (read-out: IC50, SF-268), 1.1 µM; in assay [9] (read-out: IC50, SK-OV-3) it was 1.1 µM; in assay [10] (setting [11]), greater than 25 µM.
6-keto-D-galactoside [31α]: the IC50 in assay [1] (read-out: IC50, Du145) is greater than 25 µM; in assay [2] (read-out: IC50, MCF7), greater than 25 µM; in assay [3] (read-out: IC50, HCT-116), greater than 25 µM; in assay [4] (read-out: IC50, Hep 3B), greater than 25 µM; in [5] (read-out: IC50, NCI-H460) it was greater than 25 µM; in [6] (read-out: IC50, A549), greater than 25 µM. Also, the IC50 in [7] (read-out: IC50, NCI/ADR-RES) is greater than 25 µM; in assay [8] (read-out: IC50, SF-268) it was greater than 25 µM; in assay [9] (read-out: IC50, SK-OV-3) it was greater than 25 µM; in [10] (setting [12]), greater than 25 µM.
As to `CON([C@H]1CC[C@@]2(C)[C@H](CC[C@@H]3[C@@H]2CC[C@]2(C)[C@@H](C4=CC(=O)OC4)CC[C@]32O)C1)[C@H]1C[C@@H](O)[C@@H](O)[C@@H](CO)O1` [9β, 2-deoxy-D-galactoside], the IC50 in [1] (read-out: IC50, Du145) is 7 µM; in assay [2] (read-out: IC50, MCF7), 5.1 µM; in assay [3] (read-out: IC50, HCT-116), 10 µM; in assay [4] (read-out: IC50, Hep 3B) it was 3.6 µM; in assay [5] (read-out: IC50, NCI-H460), 2 µM; in assay [6] (read-out: IC50, A549) it was 1.3 µM. Besides, the IC50 in [7] (read-out: IC50, NCI/ADR-RES) was 0.9 µM; in assay [8] (read-out: IC50, SF-268), 8 µM; in assay [9] (read-out: IC50, SK-OV-3) it was 4 µM; in [10] (setting [11]) it was greater than 25 µM.
With `CON([C@H]1CC[C@@]2(C)[C@H](CC[C@@H]3[C@@H]2CC[C@]2(C)[C@@H](C4=CC(=O)OC4)CC[C@]32O)C1)[C@@H]1O[C@H](C)[C@H](O)[C@H](O)[C@H]1O` [8β, D-fucoside], the IC50 in [1] (read-out: IC50, Du145) is 3.9 µM; in assay [2] (read-out: IC50, MCF7), 11 µM; in [3] (read-out: IC50, HCT-116), 7 µM; in assay [4] (read-out: IC50, Hep 3B), 4.9 µM; in [5] (read-out: IC50, NCI-H460), 1.3 µM; in assay [6] (read-out: IC50, A549), 1.8 µM. Further, the IC50 in [7] (read-out: IC50, NCI/ADR-RES) was 1.5 µM; in [8] (read-out: IC50, SF-268), 10 µM; in assay [9] (read-out: IC50, SK-OV-3), 5 µM; in assay [10] (setting [11]) it was greater than 25 µM.
In the case of `CON(C1CCC2(C)C(CCC3C2CCC2(C)C(C4=CC(=O)OC4)CCC32O)C1)C1OCC(O)C(O)C1O` [5α, L-riboside], the IC50 in assay [1] (read-out: IC50, Du145) was greater than 25 µM; in assay [2] (read-out: IC50, MCF7), greater than 25 µM; in assay [3] (read-out: IC50, HCT-116), greater than 25 µM; in [4] (read-out: IC50, Hep 3B), greater than 25 µM; in [5] (read-out: IC50, NCI-H460), greater than 25 µM; in assay [6] (read-out: IC50, A549), greater than 25 µM. In addition, the IC50 in assay [7] (read-out: IC50, NCI/ADR-RES) is greater than 25 µM; in assay [8] (read-out: IC50, SF-268), greater than 25 µM; in assay [9] (read-out: IC50, SK-OV-3), greater than 25 µM; in assay [10] (setting [11]), greater than 25 µM.
For the compound 6-deoxy-6-azido-D-mannoside [41α], the IC50 in assay [1] (read-out: IC50), in assay [2] (read-out: IC50), in assay [3] (read-out: IC50), in assay [4] (read-out: IC50), in assay [5] (read-out: IC50) and in assay [6] (read-out: IC50) was greater than 25 µM throughout. In addition, the IC50 in assay [7] (read-out: IC50), in assay [8] (read-out: IC50), in assay [9] (read-out: IC50) and in assay [10] (setting [12]) was greater than 25 µM throughout.
